Data as given in patent US10167262B2, “Herbicidal substituted 3-arylpyrazoles” (FMC CORPORATION, priority 2014, dated 2019).

What was measured:
Format in all cases: in vivo
[1] = tested on: waterhemp (common waterhemp, Amaranthus rudis); assay: Test E pre-/postemergence greenhouse test, plant response rating 0-100; details: scale 0 to 100; for Plant response rating, Waterhemp: Postemergence; for Waterhemp plant response rating: Preemergence
Outline: (§1)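 Pre- and postemergence sprays, vehicle non-phytotoxic solvent containing surfactant; postemergence plants 2–18 cm tall at the 1–4-leaf stage. Scored against controls after 14 to 21 days in a greenhouse, 0 being no effect and 100 complete control.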

[2] = tested on: wild poinsettia (Euphorbia heterophylla); assay: as above; details: scale 0 to 100; for Plant response rating, Poinsettia, Wild: Postemergence; for Poinsettia, Wild plant response rating: Preemergence
Outline: as §1

[3] = tested on: hairy beggarticks (Bidens pilosa); assay: as above; details: scale 0 to 100; for Plant response rating, Beggarticks: Postemergence; for Beggarticks plant response rating: Preemergence
Outline: as §1

[4] = tested on: fall panicum (Panicum dichotomiflorum); assay: as above; details: scale 0 to 100; for Plant response rating, Panicum, Fall: Postemergence; for Panicum, Fall plant response rating: Preemergence
Outline: as §1

[5] = tested on: dayflower (Virginia (VA) dayflower, Commelina virginica); assay: as above; details: scale 0 to 100; for Plant response rating, Dayflower, VA: Postemergence
Outline: as §1

corn (Zea mays) = assay: as above; details: scale 0 to 100; for Plant response rating, Corn: Postemergence; for Corn plant response rating: Preemergence
Outline: as §1

[6] = tested on: field bindweed (Convolvulus arvensis); assay: as above; details: scale 0 to 100; for Plant response rating, Field Bindweed: Postemergence; for Field Bindweed plant response rating: Preemergence
Outline: as §1

[7] = tested on: arrowleaf sida (Sida rhombifolia); assay: as above; details: for Plant response rating, Arrowleaf Sida: Postemergence; for Arrowleaf Sida plant response rating: Preemergence
Outline: as §1

[8] = tested on: Italian ryegrass (Lolium multiflorum); assay: as above; details: scale 0 to 100; for Plant response rating, Ryegrass, Italian: Postemergence; for Ryegrass, Italian plant response rating: Preemergence
Outline: as §1

[9] = tested on: Brazilian crabgrass (Digitaria horizontalis); assay: as above; details: Postemergence, scale 0 to 100
Outline: as §1

[10] = tested on: palmer pigweed (Amaranthus palmeri); assay: as above; details: scale 0 to 100; for Plant response rating, Pigweed, Palmer: Postemergence; for Pigweed, Palmer plant response rating: Preemergence
Outline: as §1

[11] = tested on: waterhemp_RES2, (ALS & HPPD resistant common waterhemp, Amaranthus rudis); assay: Test E postemergence greenhouse test, plant response rating 0-100; details: scale 0 to 100
Outline: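 Visual ratings, 0 (no effect) to 100 (complete control), made versus controls 14–21 days after postemergence application in the greenhouse. Plants were at 1- to 4-leaf stage (2–18 cm) in peat moss/vermiculite potting medium.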

Compound: O=C(c1ccccc1)c1cn(S(=O)(=O)C(F)(F)F)nc1-c1cc(Cl)cc(Cl)c1 [Compound 2]
- Plant response rating, Waterhemp ([1]; 31 g ai/ha): 90
- Plant response rating, Waterhemp ([1]; 62 g ai/ha): 80
- Plant response rating, Waterhemp ([1]; 125 g ai/ha): 98
- Plant response rating, Waterhemp ([1]; 250 g ai/ha): 98
- Plant response rating, Waterhemp ([1]; 500 g ai/ha): 100
- Waterhemp plant response rating ([1]; 31 g ai/ha): 0
- Waterhemp plant response rating ([1]; 125 g ai/ha): 30
- Waterhemp plant response rating ([1]; 250 g ai/ha): 65
- Waterhemp plant response rating ([1]; 500 g ai/ha): 100
- Plant response rating, Poinsettia, Wild ([2]; 31 g ai/ha): 0
- Plant response rating, Poinsettia, Wild ([2]; 62 g ai/ha): 0
- Plant response rating, Poinsettia, Wild ([2]; 125 g ai/ha): 0
- Plant response rating, Poinsettia, Wild ([2]; 250 g ai/ha): 0
- Plant response rating, Poinsettia, Wild ([2]; 500 g ai/ha): 0
- Poinsettia, Wild plant response rating ([2]; 62 g ai/ha): 0
- Poinsettia, Wild plant response rating ([2]; 125 g ai/ha): 0
- Poinsettia, Wild plant response rating ([2]; 250 g ai/ha): 0
- Poinsettia, Wild plant response rating ([2]; 500 g ai/ha): 0
- Plant response rating, Beggarticks ([3]; 31 g ai/ha): 80
- Plant response rating, Beggarticks ([3]; 62 g ai/ha): 90
- Plant response rating, Beggarticks ([3]; 125 g ai/ha): 100
- Plant response rating, Beggarticks ([3]; 250 g ai/ha): 100
- Plant response rating, Beggarticks ([3]; 500 g ai/ha): 100
- Beggarticks plant response rating ([3]; 31 g ai/ha): 0
- Beggarticks plant response rating ([3]; 62 g ai/ha): 0
- Beggarticks plant response rating ([3]; 125 g ai/ha): 0
- Beggarticks plant response rating ([3]; 250 g ai/ha): 0
- Beggarticks plant response rating ([3]; 500 g ai/ha): 0
- Plant response rating, Panicum, Fall ([4]; 31 g ai/ha): 0
- Plant response rating, Panicum, Fall ([4]; 62 g ai/ha): 0
- Plant response rating, Panicum, Fall ([4]; 125 g ai/ha): 0
- Plant response rating, Panicum, Fall ([4]; 250 g ai/ha): 25
- Plant response rating, Panicum, Fall ([4]; 500 g ai/ha): 40
- Panicum, Fall plant response rating ([4]; 31 g ai/ha): 0
- Panicum, Fall plant response rating ([4]; 62 g ai/ha): 0
- Panicum, Fall plant response rating ([4]; 125 g ai/ha): 0
- Panicum, Fall plant response rating ([4]; 250 g ai/ha): 0
- Panicum, Fall plant response rating ([4]; 500 g ai/ha): 0
- Plant response rating, Dayflower, VA ([5]; 31 g ai/ha): 0
- Plant response rating, Dayflower, VA ([5]; 62 g ai/ha): 0
- Plant response rating, Dayflower, VA ([5]; 125 g ai/ha): 0
- Plant response rating, Dayflower, VA ([5]; 250 g ai/ha): 0
- Plant response rating, Dayflower, VA ([5]; 500 g ai/ha): 0
- Dayflower, VA plant response rating ([5]; Preemergence, 62 g ai/ha): 0
- Plant response rating, Corn (corn (Zea mays); 31 g ai/ha): 0
- Plant response rating, Corn (corn (Zea mays); 62 g ai/ha): 0
- Plant response rating, Corn (corn (Zea mays); 125 g ai/ha): 0
- Plant response rating, Corn (corn (Zea mays); 250 g ai/ha): 0
- Plant response rating, Corn (corn (Zea mays); 500 g ai/ha): 0
- Corn plant response rating (corn (Zea mays); 31 g ai/ha): 0
- Corn plant response rating (corn (Zea mays); 62 g ai/ha): 0
- Corn plant response rating (corn (Zea mays); 125 g ai/ha): 0
- Corn plant response rating (corn (Zea mays); 250 g ai/ha): 0
- Corn plant response rating (corn (Zea mays); 500 g ai/ha): 0
- Plant response rating, Field Bindweed ([6]; 31 g ai/ha): 0
- Plant response rating, Field Bindweed ([6]; 62 g ai/ha): 0
- Plant response rating, Field Bindweed ([6]; 125 g ai/ha): 0
- Plant response rating, Field Bindweed ([6]; 250 g ai/ha): 0
- Plant response rating, Field Bindweed ([6]; 500 g ai/ha): 0
- Field Bindweed plant response rating ([6]; 31 g ai/ha): 0
- Field Bindweed plant response rating ([6]; 62 g ai/ha): 0
- Field Bindweed plant response rating ([6]; 125 g ai/ha): 0
- Field Bindweed plant response rating ([6]; 250 g ai/ha): 0
- Field Bindweed plant response rating ([6]; 500 g ai/ha): 0
- Plant response rating, Arrowleaf Sida ([7]; 31 g ai/ha, scale 0 to 100): 95
- Plant response rating, Arrowleaf Sida ([7]; 62 g ai/ha, scale 0 to 100): 95
- Plant response rating, Arrowleaf Sida ([7]; 125 g ai/ha, scale 0 to 100): 95
- Plant response rating, Arrowleaf Sida ([7]; 250 g ai/ha, scale 0 to 100): 95
- Plant response rating, Arrowleaf Sida ([7]; 500 g ai/ha, scale 0 to 100 (0 no effect, 100 complete control)): 98
- Arrowleaf Sida plant response rating ([7]; 31 g ai/ha, scale 0 to 100): 35
- Arrowleaf Sida plant response rating ([7]; 62 g ai/ha, scale 0 to 100): 35
- Arrowleaf Sida plant response rating ([7]; 125 g ai/ha, scale 0 to 100): 50
- Arrowleaf Sida plant response rating ([7]; 250 g ai/ha, scale 0 to 100): 98
- Arrowleaf Sida plant response rating ([7]; 500 g ai/ha, scale 0 to 100): 95
- Plant response rating, Ryegrass, Italian ([8]; 31 g ai/ha): 0
- Plant response rating, Ryegrass, Italian ([8]; 62 g ai/ha): 0
- Plant response rating, Ryegrass, Italian ([8]; 125 g ai/ha): 0
- Plant response rating, Ryegrass, Italian ([8]; 250 g ai/ha): 0
- Plant response rating, Ryegrass, Italian ([8]; 500 g ai/ha): 0
- Ryegrass, Italian plant response rating ([8]; 31 g ai/ha): 0
- Ryegrass, Italian plant response rating ([8]; 62 g ai/ha): 0
- Ryegrass, Italian plant response rating ([8]; 125 g ai/ha): 0
- Ryegrass, Italian plant response rating ([8]; 250 g ai/ha): 0
- Ryegrass, Italian plant response rating ([8]; 500 g ai/ha): 0
- Plant response rating, Crabgrass, Brazil ([9]; 31 g ai/ha): 0
- Plant response rating, Crabgrass, Brazil ([9]; 62 g ai/ha): 0
- Plant response rating, Crabgrass, Brazil ([9]; 125 g ai/ha): 0
- Plant response rating, Crabgrass, Brazil ([9]; 250 g ai/ha): 0
- Plant response rating, Crabgrass, Brazil ([9]; 500 g ai/ha): 0
- Plant response rating, Pigweed, Palmer ([10]; 31 g ai/ha): 65
- Plant response rating, Pigweed, Palmer ([10]; 62 g ai/ha): 85
- Plant response rating, Pigweed, Palmer ([10]; 125 g ai/ha): 90
- Plant response rating, Pigweed, Palmer ([10]; 250 g ai/ha): 95
- Plant response rating, Pigweed, Palmer ([10]; 500 g ai/ha): 100
- Pigweed, Palmer plant response rating ([10]; 31 g ai/ha): 0
- Pigweed, Palmer plant response rating ([10]; 62 g ai/ha): 0
- Pigweed, Palmer plant response rating ([10]; 125 g ai/ha): 0
- Pigweed, Palmer plant response rating ([10]; 250 g ai/ha): 0
- Pigweed, Palmer plant response rating ([10]; 500 g ai/ha): 100
- Plant response rating, Waterhemp_RES2 ([11]; 31 g ai/ha): 0
- Plant response rating, Waterhemp_RES2 ([11]; 62 g ai/ha): 65
- Plant response rating, Waterhemp_RES2 ([11]; 125 g ai/ha): 85
- Plant response rating, Waterhemp_RES2 ([11]; 250 g ai/ha): 95
- Plant response rating, Waterhemp_RES2 ([11]; 500 g ai/ha): 98
